In patent US11622991B2, “Protocol for treatment of lupus nephritis” (Aurinia Pharmaceuticals Inc., priority 2017, dated 2023):

What was measured:
Assay type in all cases: in vivo, human
lupus nephritis [1] = assay: Predictability from early reduction in UPCR or C3/C4 normalization combined at 12 weeks (Tables 13-17)
Text: (§1) PR is defined as at least 50% reduction in proteinuria (i.e. UPCR).
(§2) Sensitivity is defined as the probability that a subject showing PR at 48 weeks would have shown a favorable result with regard to the marker at the designated early time point. In the tables below, this is the ratio of the number of subjects with favorable marker results (early drop or normalization) to the total subjects with 48 week PR.
(§3) Specificity is defined as the probability that a subject not showing PR at 48 weeks would have shown an unfavorable result with regard to the marker at the designated early time point. In the tables below, this is the ratio of the number of subjects with unfavorable marker results (no early drop or no normalization) to the total subjects with no 48 week PR.
(§4) Positive predictive value is defined as the probability that a subject showing a favorable result with respect to the marker at an earlier time point would show PR at 48 weeks. In the tables below, this is the ratio of the number of subjects with favorable marker results who have 48 week PR to those with favorable marker results (early reduction or yes column).
Negative predictive value is defined as the probability that a subject showing an unfavorable result with respect to the marker at an earlier time point would not show PR at 48 weeks. In the tables below, this is the ratio of the number of subjects with unfavorable marker results who have no PR at 48 weeks to the total subjects with unfavorable marker results (no early reduction or no column). […]

lupus nephritis [2] = assay: Predictability of week 48 partial remission from early C3 normalization (Table 10)
Text: as §1, §2, §3, §4
(§5) Negative predictive value is defined as the probability that a subject showing an unfavorable result with respect to the marker at an earlier time point would not show PR at 48 weeks. In the tables below, this is the ratio of the number of subjects with unfavorable marker results who have no PR at 48 weeks to the total subjects with unfavorable marker results (no early reduction or no column).
(§6) Another criterion for effectiveness is normalization of C3 and/or C4 concentration in blood. The normal concentration of C3 is 90 mg/dl or greater and for C4 16 mg/dl or greater.

lupus nephritis [3] = assay: Predictability of week 48 partial remission from early C4 normalization (Table 11)
Text: as §1, §2, §3, §4, §5, §6

[4] = Early 25% reduction in UPCR or C3/C4 normalization, Week 12, 23.7 mg BID, number of patients
[5] = Early 25% reduction in UPCR or C3/C4 normalization, Week 12, 39.5 mg BID, number of patients
[6] = Early 25% reduction in UPCR or C3/C4 normalization, Week 24, 23.7 mg BID, number of patients
[7] = Early 25% reduction in UPCR or C3/C4 normalization, Week 48, 23.7 mg BID, number of patients
[8] = Early 30% reduction in UPCR or C3/C4 normalization, Week 12, 23.7 mg BID, number of patients
[9] = Early 30% reduction in UPCR or C3/C4 normalization, Week 12, 39.5 mg BID, number of patients
[10] = Early 30% reduction in UPCR or C3/C4 normalization, Week 24, 23.7 mg BID, number of patients
[11] = Early 30% reduction in UPCR or C3/C4 normalization, Week 48, 23.7 mg BID, number of patients
[12] = Early 30% reduction in UPCR or C3/C4 normalization, Week 48, 39.5 mg BID, number of patients
[13] = Early 35% reduction in UPCR or C3/C4 normalization, Week 12, 23.7 mg BID, number of patients
[14] = Early 35% reduction in UPCR or C3/C4 normalization, Week 12, 39.5 mg BID, number of patients
[15] = Early 35% reduction in UPCR or C3/C4 normalization, Week 24, 23.7 mg BID, number of patients
[16] = Early 35% reduction in UPCR or C3/C4 normalization, Week 48, 23.7 mg BID, number of patients
[17] = Early 35% reduction in UPCR or C3/C4 normalization, Week 48, 39.5 mg BID, number of patients
[18] = early 15% reduction in UPCR or C3/C4 normalization, week 12, 23.7 mg BID
[19] = early 15% reduction in UPCR or C3/C4 normalization, week 12, 39.5 mg BID
[20] = early 15% reduction in UPCR or C3/C4 normalization, week 24, 23.7 mg BID
[21] = early 15% reduction in UPCR or C3/C4 normalization, week 24, 39.5 mg BID
[22] = early 15% reduction in UPCR or C3/C4 normalization, week 48, 23.7 mg BID
[23] = early 15% reduction in UPCR or C3/C4 normalization, week 48, 39.5 mg BID
[24] = early 20% reduction in UPCR or C3/C4 normalization, week 12, 23.7 mg BID
[25] = early 20% reduction in UPCR or C3/C4 normalization, week 12, 39.5 mg BID
[26] = early 20% reduction in UPCR or C3/C4 normalization, week 24, 23.7 mg BID
[27] = early 20% reduction in UPCR or C3/C4 normalization, week 24, 39.5 mg BID
[28] = early 20% reduction in UPCR or C3/C4 normalization, week 48, 23.7 mg BID
[29] = early 20% reduction in UPCR or C3/C4 normalization, week 48, 39.5 mg BID

C=C/C=C/C[C@@H](C)[C@@H](O)[C@H]1C(=O)N[C@@H](CC)C(=O)N(C)CC(=O)N(C)[C@@H](CC(C)C)C(=O)N[C@@H](C(C)C)C(=O)N(C)[C@@H](CC(C)C)C(=O)N[C@@H](C)C(=O)N[C@H](C)C(=O)N(C)[C@@H](CC(C)C)C(=O)N(C)[C@@H](CC(C)C)C(=O)N(C)[C@@H](C(C)C)C(=O)N1C [voclosporin]
No Week 48 Partial Remission, No Early Drop or Normal (lupus nephritis [1]; [4]): 3 | Week 48 Partial Remission, No Early Drop or Normal (lupus nephritis [1]; [4]): 2 | No Week 48 Partial Remission, No Early Drop or Normal (lupus nephritis [1]; [5]): 3 | Week 48 Partial Remission, No Early Drop or Normal (lupus nephritis [1]; [5]): 3 | Early Drop or Normal No (lupus nephritis [1]; [6]): 1 | No Week 48 Partial Remission, No Early Drop or Normal (lupus nephritis [1]; [6]): 1 | Early Drop or Normal No (lupus nephritis [1]; Early 25% reduction in UPCR or C3/C4 normalization, Week 24, 39.5 mg BID, number of patients): 10 | Early Drop or Normal No (lupus nephritis [1]; [7]): 1 | No Week 48 Partial Remission, Early Drop or Normal (lupus nephritis [1]; [7]): 10 | No Week 48 Partial Remission, No Early Drop or Normal (lupus nephritis [1]; [7]): 1 | No Week 48 Partial Remission, Early Drop or Normal (lupus nephritis [1]; Early 25% reduction in UPCR or C3/C4 normalization, Week 48, 39.5 mg BID, number of patients): 10 | No Week 48 Partial Remission, No Early Drop or Normal (lupus nephritis [1]; [8]): 3 | Week 48 Partial Remission, No Early Drop or Normal (lupus nephritis [1]; [8]): 2 | Early Drop or Normal No (lupus nephritis [1]; [9]): 7 | No Week 48 Partial Remission, No Early Drop or Normal (lupus nephritis [1]; [9]): 3 | Week 48 Partial Remission, No Early Drop or Normal (lupus nephritis [1]; [9]): 4 | Early Drop or Normal No (lupus nephritis [1]; [10]): 1 | No Week 48 Partial Remission, No Early Drop or Normal (lupus nephritis [1]; [10]): 1 | Early Drop or Normal No (lupus nephritis [1]; Early 30% reduction in UPCR or C3/C4 normalization, Week 24, 39.5 mg BID, number of patients): 10 | Early Drop or Normal No (lupus nephritis [1]; [11]): 2 | No Week 48 Partial Remission, Early Drop or Normal (lupus nephritis [1]; [11]): 9 | No Week 48 Partial Remission, No Early Drop or Normal (lupus nephritis [1]; [11]): 2 | Early Drop or Normal No (lupus nephritis [1]; [12]): 8 | No Week 48 Partial Remission, Early Drop or Normal (lupus nephritis [1]; [12]): 8 | No Week 48 Partial Remission, No Early Drop or Normal (lupus nephritis [1]; [12]): 8 | Early Drop or Normal No (lupus nephritis [1]; [13]): 9 | Week 48 Partial Remission, No Early Drop or Normal (lupus nephritis [1]; [13]): 4 | Early Drop or Normal No (lupus nephritis [1]; [14]): 9 | No Week 48 Partial Remission, No Early Drop or Normal (lupus nephritis [1]; [14]): 3 | Early Drop or Normal No (lupus nephritis [1]; [15]): 4 | No Week 48 Partial Remission, Early Drop or Normal (lupus nephritis [1]; [15]): 10 | No Week 48 Partial Remission, No Early Drop or Normal (lupus nephritis [1]; [15]): 4 | Early Drop or Normal No (lupus nephritis [1]; Early 35% reduction in UPCR or C3/C4 normalization, Week 24, 39.5 mg BID, number of patients): 10 | Early Drop or Normal No (lupus nephritis [1]; [16]): 3 | No Week 48 Partial Remission, Early Drop or Normal (lupus nephritis [1]; [16]): 8 | No Week 48 Partial Remission, No Early Drop or Normal (lupus nephritis [1]; [16]): 3 | Early Drop or Normal No (lupus nephritis [1]; [17]): 9 | No Week 48 Partial Remission, Early Drop or Normal (lupus nephritis [1]; [17]): 7 | No Week 48 Partial Remission, No Early Drop or Normal (lupus nephritis [1]; [17]): 9 | Early Drop or Normal No (lupus nephritis [1]; [18]): 2 | No Week 48 Partial Remission, No Early Drop or Normal (lupus nephritis [1]; [18]): 1 | Week 48 Partial Remission, No Early Drop or Normal (lupus nephritis [1]; [18]): 1 | No Week 48 Partial Remission, No Early Drop or Normal (lupus nephritis [1]; [19]): 3 | Week 48 Partial Remission, No Early Drop or Normal (lupus nephritis [1]; [19]): 3 | Early Drop or Normal No (lupus nephritis [1]; [20]): 1 | No Week 48 Partial Remission, No Early Drop or Normal (lupus nephritis [1]; [20]): 1 | Early Drop or Normal No (lupus nephritis [1]; [21]): 9 | No Week 48 Partial Remission, No Early Drop or Normal (lupus nephritis [1]; [21]): 4 | Early Drop or Normal No (lupus nephritis [1]; [22]): 1 | No Week 48 Partial Remission, Early Drop or Normal (lupus nephritis [1]; [22]): 10 | No Week 48 Partial Remission, No Early Drop or Normal (lupus nephritis [1]; [22]): 1 | Early Drop or Normal No (lupus nephritis [1]; [23]): 4 | No Week 48 Partial Remission, No Early Drop or Normal (lupus nephritis [1]; [23]): 4 | Early Drop or Normal No (lupus nephritis [1]; [24]): 3 | No Week 48 Partial Remission, No Early Drop or Normal (lupus nephritis [1]; [24]): 2 | Week 48 Partial Remission, No Early Drop or Normal (lupus nephritis [1]; [24]): 1 | No Week 48 Partial Remission, No Early Drop or Normal (lupus nephritis [1]; [25]): 3 | Week 48 Partial Remission, No Early Drop or Normal (lupus nephritis [1]; [25]): 3 | Early Drop or Normal No (lupus nephritis [1]; [26]): 1 | No Week 48 Partial Remission, No Early Drop or Normal (lupus nephritis [1]; [26]): 1 | Early Drop or Normal No (lupus nephritis [1]; [27]): 9 | No Week 48 Partial Remission, No Early Drop or Normal (lupus nephritis [1]; [27]): 4 | Early Drop or Normal No (lupus nephritis [1]; [28]): 1 | No Week 48 Partial Remission, Early Drop or Normal (lupus nephritis [1]; [28]): 10 | No Week 48 Partial Remission, No Early Drop or Normal (lupus nephritis [1]; [28]): 1 | Early Drop or Normal No (lupus nephritis [1]; [29]): 4 | No Week 48 Partial Remission, No Early Drop or Normal (lupus nephritis [1]; [29]): 4 | No Week 48 Partial Remission No Normalization (lupus nephritis [2]; week 12, 23.7 mg BID): 10 | No Week 48 Partial Remission Normalization (lupus nephritis [2]; week 12, 23.7 mg BID): 8 | Normalization Yes (lupus nephritis [2]; week 12, 23.7 mg BID): 31 | No Week 48 Partial Remission No Normalization (lupus nephritis [2]; week 12, 39.5 mg BID): 10 | No Week 48 Partial Remission Normalization (lupus nephritis [2]; week 12, 39.5 mg BID): 7 | No Week 48 Partial Remission No Normalization (lupus nephritis [2]; week 24, 23.7 mg BID): 8 | Normalization Yes (lupus nephritis [2]; week 24, 23.7 mg BID): 30 | Week 48 Partial Remission No Normalization (lupus nephritis [2]; week 24, 23.7 mg BID): 33 | No Week 48 Partial Remission No Normalization (lupus nephritis [2]; week 48, 23.7 mg BID): 8 | No Week 48 Partial Remission Normalization (lupus nephritis [2]; week 48, 23.7 mg BID): 2 | Normalization Yes (lupus nephritis [2]; week 48, 23.7 mg BID): 27 | No Week 48 Partial Remission No Normalization (lupus nephritis [2]; week 48, 39.5 mg BID): 9 | No Week 48 Partial Remission Normalization (lupus nephritis [2]; week 48, 39.5 mg BID): 7 | No Week 48 Partial Remission No Normalization (lupus nephritis [3]; week 12, 23.7 mg BID): 8 | No Week 48 Partial Remission Normalization (lupus nephritis [3]; week 12, 23.7 mg BID): 10 | No Week 48 Partial Remission No Normalization (lupus nephritis [3]; week 12, 39.5 mg BID): 9 | No Week 48 Partial Remission Normalization (lupus nephritis [3]; week 12, 39.5 mg BID): 8 | Normalization No (lupus nephritis [3]; week 12, 39.5 mg BID): 31 | Normalization Yes (lupus nephritis [3]; week 12, 39.5 mg BID): 48 | No Week 48 Partial Remission Normalization (lupus nephritis [3]; week 24, 23.7 mg BID): 8 | Normalization No (lupus nephritis [3]; week 24, 23.7 mg BID): 31 | Week 48 Partial Remission Normalization (lupus nephritis [3]; week 24, 23.7 mg BID): 32 | Normalization No (lupus nephritis [3]; week 48, 23.7 mg BID): 31 | Week 48 Partial Remission Normalization (lupus nephritis [3]; week 48, 23.7 mg BID): 29 | No Week 48 Partial Remission No Normalization (lupus nephritis [3]; week 48, 39.5 mg BID): 11
